Earlier results on two compounds are cited in patent USRE48948E1, “Clonidine compounds in a biodegradable polymer” (priority 2008, dated 2022).

Structures can show the parent of a compound that is named as a salt.

Data set [1] concerns post-surgical knee pain. Conditions: Intra-articular administration of 150 mcg.
The conditions of data set [2]: in vivo.

For the compound `Clc1cccc(Cl)c1N=C1NCCN1` [clonidine HCL], the “relief of post-surgical knee pain” value in data set [1] is “as effective as morphine”. For the compound `Clc1cccc(Cl)c1N=C1NCCN1` [clonidine, 2,6-dichloro-N-2-imidazolidinyldenebenzenamine], in data set [2], the “plasma concentration above which antihypertensive effects become evident” value is “above 500 pg/mL” and the “systemic concentration associated with spinal analgesia” value is on record as “approximately 2 ng/mL”.
